Experimental data reported in PubChem BioAssay AID1259411 (Chemical Carcinogenesis Research Information System (CCRIS), 2018).
Activity calls are given as the source filed them. The rule behind the calls is not given here.

System: rodent carcinogenicity bioassays, tumor incidence
Experiment: CCRIS carcinogenicity studies
How it was run: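 NCI-built, expert-reviewed records of carcinogenicity and related test outcomes (mutagenicity, tumor promotion/inhibition) compiled from published and report sources, historical span 1985-2011, not updated.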

CC[C@H]1CCC[C@H](O[C@H]2CC[C@H](N(C)C)[C@@H](C)O2)[C@@H](C)C(=O)C2=C[C@@H]3[C@@H](C=C[C@@H]4C[C@@H](O[C@@H]5O[C@@H](C)[C@H](OC)[C@@H](OC)[C@H]5OC)C[C@@H]34)[C@@H]2CC(=O)O1
carcinogen call (Species: MOUSE, Strain/Sex: CD-1/FEMALE, Route: ORAL, Dose: 0, 0.0025, 0.008, 0.024, 0.0008% IN DIET FOR 18 MO (STUDY DURATION: 18 MO), Dose: 0, 0.0025, 0.008, 0.024, 0.0008% IN DIET FOR 18 MO (STUDY DURATION: 18 MO)): inactive; negative
carcinogen call (Species: MOUSE, Strain/Sex: CD-1/FEMALE, Route: ORAL, Dose: 0.0025, 0.008, 0.036 % IN DIET FOR 18 MO (STUDY DURATION: 18 MO), Dose: 0.0025, 0.008, 0.036 % IN DIET FOR 18 MO (STUDY DURATION: 18 MO)): inactive; negative
carcinogen call (Species: MOUSE, Strain/Sex: CD-1/MALE, Route: ORAL, Dose: 0, 0.0008, 0.0025, 0.008, 0.024, 0.036% IN DIET FOR 18 MO (STUDY DURATION: 18 MO), Dose: 0, 0.0008, 0.0025, 0.008, 0.024, 0.036% IN DIET FOR 18 MO (STUDY DURATION: 18 MO)): inactive; negative
carcinogen call (Species: MOUSE, Strain/Sex: CD-1/MALE, Route: ORAL, Dose: 0.0025, 0.008, 0.036 % IN DIET FOR 18 MO (STUDY DURATION: 18 MO), Dose: 0.0025, 0.008, 0.036 % IN DIET FOR 18 MO (STUDY DURATION: 18 MO)): inactive; negative
carcinogen call (Species: RAT, Strain/Sex: F344/FEMALE, Route: ORAL, Dose: 0.005, 0.02, 0.05, 0.1% IN DIET FOR 24 MO (STUDY DURATION: 24 MO), Dose: 0.005, 0.02, 0.05, 0.1% IN DIET FOR 24 MO (STUDY DURATION: 24 MO)): inactive; negative
carcinogen call (Species: RAT, Strain/Sex: F344/MALE, Route: ORAL, Dose: 0.005, 0.02, 0.05, 0.1 % IN DIET FOR 24 MO (STUDY DURATION: 24 MO), Dose: 0.005, 0.02, 0.05, 0.1 % IN DIET FOR 24 MO (STUDY DURATION: 24 MO)): inactive; negative

C1=Cc2cc3ccccc3c3cccc1c23
carcinogen call (Species: MOUSE, Strain/Sex: BLU:HA/FEMALE, Route: INTRAPERITONEAL, Dose: 0, 175, 437.5 UG/KG/D ON DAYS 1 (1/7 TOTAL DOSE), 8 (2/7 TOTAL DOSE), AND 15 (4/7 TOTAL DOSE) AFTER BIRTH (STUDY DURATIO, Dose: 0, 175, 437.5 UG/KG/D ON DAYS 1 (1/7 TOTAL DOSE), 8 (2/7 TOTAL DOSE), AND 15 (4/7 TOTAL DOSE) AFTER BIRTH (STUDY DURATIO): inactive; negative
carcinogen call (Species: MOUSE, Strain/Sex: BLU:HA/MALE, Route: INTRAPERITONEAL, Dose: 0, 175, 437.5 UG/KG/D ON DAYS 1 (1/7 TOTAL DOSE), 8 (2/7 TOTAL DOSE), AND 15 (4/7 TOTAL DOSE) AFTER BIRTH (STUDY DURATIO, Dose: 0, 175, 437.5 UG/KG/D ON DAYS 1 (1/7 TOTAL DOSE), 8 (2/7 TOTAL DOSE), AND 15 (4/7 TOTAL DOSE) AFTER BIRTH (STUDY DURATIO, Tumor Site: Type of Lesion: LUNG: ADENOMA): active; positive
carcinogen call (Species: MOUSE, Strain/Sex: CD-1/FEMALE, Route: INTRAPERITONEAL, Dose: 0, 175, 437.5, 875 UG/KG/D ON DAYS 1 (1/7 TOTAL DOSE), 8 (2/7 TOTAL DOSE), AND 15 (4/7 TOTAL DOSE) AFTER BIRTH (STUDY DU, Dose: 0, 175, 437.5, 875 UG/KG/D ON DAYS 1 (1/7 TOTAL DOSE), 8 (2/7 TOTAL DOSE), AND 15 (4/7 TOTAL DOSE) AFTER BIRTH (STUDY DU): inactive; negative
carcinogen call (Species: MOUSE, Strain/Sex: CD-1/MALE, Route: INTRAPERITONEAL, Dose: 0, 175, 437.5, 875 UG/KG/D ON DAYS 1 (1/7 TOTAL DOSE), 8 (2/7 TOTAL DOSE), AND 15 (4/7 TOTAL DOSE) AFTER BIRTH (STUDY DU, Dose: 0, 175, 437.5, 875 UG/KG/D ON DAYS 1 (1/7 TOTAL DOSE), 8 (2/7 TOTAL DOSE), AND 15 (4/7 TOTAL DOSE) AFTER BIRTH (STUDY DU, Tumor Site: Type of Lesion: LUNG: ADENOMA OR ADENOCARCINOMA, LIVER: TUMOR): active; positive

N#Cc1ccc(C/C(=N\NC(=O)Nc2ccc(OC(F)(F)F)cc2)c2cccc(C(F)(F)F)c2)cc1
carcinogen call (Species: Mouse, Strain/Sex: CD-1/Female (65/Group), Route: Oral, Dose: 0 (aqueous carboxymethylcellulose), 100, 250, 1000 mg/kg/day of 96.3% metaflumizone by gavage for 18 mo, study duration, Dose: 0 (aqueous carboxymethylcellulose), 100, 250, 1000 mg/kg/day of 96.3% metaflumizone by gavage for 18 mo, study duration): inactive; negative
carcinogen call (Species: Mouse, Strain/Sex: CD-1/Male (65/Group), Route: Oral, Dose: 0 (aqueous carboxymethylcellulose), 100, 250, 1000 mg/kg/day of 96.3% metaflumizone by gavage for 18 mo, study duration, Dose: 0 (aqueous carboxymethylcellulose), 100, 250, 1000 mg/kg/day of 96.3% metaflumizone by gavage for 18 mo, study duration): inactive; negative
carcinogen call (Species: Rat, Strain/Sex: Sprague-Dawley/Female (80/Group), Route: Oral, Dose: 0 (aqueous carboxymethylcellulose), 30, 60, 300 mg/kg/day (adjusted to 200 mg after 2 weeks of treatment) of 96.3% metaf, Dose: 0 (aqueous carboxymethylcellulose), 30, 60, 300 mg/kg/day (adjusted to 200 mg after 2 weeks of treatment) of 96.3% metaf): inactive; negative
carcinogen call (Species: Rat, Strain/Sex: Sprague-Dawley/Male (80/Group), Route: Oral, Dose: 0 (aqueous carboxymethylcellulose), 30, 60, 300 mg/kg/day of 96.3% metaflumizone by gavage for 24 mo, study duration 24, Dose: 0 (aqueous carboxymethylcellulose), 30, 60, 300 mg/kg/day of 96.3% metaflumizone by gavage for 24 mo, study duration 24): inactive; negative

Cn1cc(OCC(O)CNC(C)(C)C)c2ccccc2c1=O (stereo unspecified)
carcinogen call (Species: MOUSE, Strain/Sex: CD-1/FEMALE, Route: GAVAGE, Dose: 0, 3, 10, 30 MG/KG/D FOR 80 WK IN WATER (STUDY DURATION: 80 WK), Dose: 0, 3, 10, 30 MG/KG/D FOR 80 WK IN WATER (STUDY DURATION: 80 WK)): inactive; negative
carcinogen call (Species: MOUSE, Strain/Sex: CD-1/MALE, Route: GAVAGE, Dose: 0, 3, 10, 30 MG/KG/D FOR 80 WK IN WATER (STUDY DURATION: 80 WK), Dose: 0, 3, 10, 30 MG/KG/D FOR 80 WK IN WATER (STUDY DURATION: 80 WK)): inactive; negative

O=NN1CCCCCCC1
carcinogen call (Species: HAMSTER, Strain/Sex: EUROPEAN/FEMALE, Route: SUBCUTANEOUS, Dose: 11, 22, 44 MG/KG 3/WK, Dose: 11, 22, 44 MG/KG 3/WK, Tumor Site: Type of Lesion: LUNG: ADENOCARCINOMA, SQUAMOUS CELL CARCINOMA, NASAL CAVITY: SQUAMOUS CELL CARCINOMA): active; positive
carcinogen call (Species: HAMSTER, Strain/Sex: EUROPEAN/MALE, Route: SUBCUTANEOUS, Dose: 16.5, 33, 66 MG/KG 3/WK, Dose: 16.5, 33, 66 MG/KG 3/WK, Tumor Site: Type of Lesion: LUNG: ADENOCARCINOMA, SQUAMOUS CELL CARCINOMA, NASAL CAVITY: SQUAMOUS CELL CARCINOMA): active; positive
carcinogen call (Species: HAMSTER, Strain/Sex: SYRIAN/MALE, Route: ORAL, Dose: 50, 200 MG/L 5 NIGHT/WK FOR 50 WK IN DRINKING WATER, Tumor Site: Type of Lesion: NASAL CAVITY, LARYNX, PHARYNX, TRACHEA, ESOPHAGUS, FORESTOMACH, Tumor Site: Type of Lesion: NASAL CAVITY, LARYNX, PHARYNX, TRACHEA, ESOPHAGUS, FORESTOMACH): active; positive
carcinogen call (Species: RAT, Strain/Sex: LISTER/FEMALE, Route: SUBCUTANEOUS, Dose: 0, 1 MG 1/WK FOR 10 WK (STUDY DURATION: 104 WK)): inactive; negative
carcinogen call (Species: RAT, Strain/Sex: MRC/MALE,FEMALE, Route: ORAL, Dose: 100 MG/L 5 D/WK FOR 30 WK IN DRINKING WATER, Tumor Site: Type of Lesion: ESOPHAGUS, TRACHEA: SQUAMOUS CELL PAPILLOMA, LUNG: SQUAMOUS CELL CARCINOMA, Tumor Site: Type of Lesion: ESOPHAGUS, TRACHEA: SQUAMOUS CELL PAPILLOMA, LUNG: SQUAMOUS CELL CARCINOMA): active; positive
